Results as given in US20060089375A1, “Pyrazolo[3,4-b] pyridine compounds, and their use as phosphodiesterase inhibitors” (priority 2002, published 2006).

Columns and labels:
[1] = tested on: LPS-induced pulmonary neutrophilia in rats; assay: In Vivo Assay 1: LPS-induced pulmonary neutrophilia in rats, orally administered PDE4 inhibitors; conditions: Rattus norvegicus, po, aerosolized LPS 30 min after dosing, BAL 4 hours post LPS, read-out: neutrophilia-inhibition ED50
Source text: The purpose of this neutrophilia model is to study the potentially anti-inflammatory effects in vivo of orally administered PDE4 inhibitors on neutrophilia induced by inhalation of aerosolized lipopolysaccharide (LPS), modelling the neutrophil inflammatory component(s) of COPD. See the literature section below for scientific background.
Male Lewis rats (Charles River, Raleigh, N.C., USA) weighing approximately 300-400 grams are pretreated with either (a) test compound suspended in 0.5% methylcellulose (obtainable from Sigma-Aldrich, St Louis, Mo., USA) in water or (b) vehicle only, delivered orally in a dose volume of 10 ml/kg. Generally, dose response curves are generated using the following doses of PDE4 inhibitors: 10.0, 2.0, 0.4, 0.08 and 0.016 mg/kg. Thirty minutes following pretreatment, the rats are exposed to aerosolized LPS (Serotype E. Coli 026:B6 prepared by trichloroacetic acid extraction, obtainable from Sigma-Aldrich, St Louis, Mo., USA), generated from a nebulizer containing a 100 μg/ml LPS solution. Rats are exposed to the LPS aerosol at a rate of 4 L/min for 20 minutes. LPS exposure is carried out in a closed chamber with internal dimensions of 45 cm length×24 cm width×20 cm height. The nebulizer and exposure chamber are contained in a certified fume hood. At 4 hours-post LPS exposure the rats are euthanized by overdose with pentobarbital at 90 mg/kg, administered intraperitoneally. Bronchoalveolar lavage (BAL) is preformed through a 14 gauge blunt needle into the exposed trachea. Five, 5 ml washes are performed to collect a total of 25 ml of BAL fluid. […] Percent neutrophil inhibition at each dose (cf. vehicle) is calculated and a variable slope, sigmoidal dose-response curve is generated, usually using Prism Graph-Pad. […]
Alternative method and results: In an alternative embodiment of the procedure, single oral doses of 10 mg/kg or 1.0 mg/kg of the PDE4 inhibitor (or vehicle) is administered to the rats, and percent neutrophil inhibition is calculated and reported for that specific dose.

pica feeding response = assay: In Vivo Assay 2: Rat Pica Model of Emesis; conditions: oral, rats, dosed orally, upper end given as greater than or equal to about 40 mg/kg
Source text: However, a side effect of some PDE4 inhibitors in many species is emesis. Because many rat models of inflammation are well characterized, they have been used in procedures (see e.g. In Vivo Assay 1 above) to show beneficial anti-inflammatory effects of PDE 4 inhibitors. However rats have no emetic response (they have no vomit reflex), so that the relationship between beneficial anti-inflammatory effects of PDE 4 inhibitors and emesis is difficult to study directly in rats.
Pica feeding is a behavioural response to illness in rats wherein rats eat non-nutritive substances such as earth or in particular clay (e.g. kaolin) which may help to absorb toxins. Pica feeding can be induced by motion and chemicals (especially chemicals which are emetic in humans), and can be inhibited pharmacologically with drugs that inhibit emesis in humans. The Rat Pica Model, In Vivo Assay 2, can determine the level of pica response of rats to PDE 4 inhibition at pharmacologically relevant doses in parallel to in vivo anti-inflammatory Assays in (a separate set of) rats (e.g. In Vivo Assay 1 above). […] The Rat TI can for example be calculated as the ratio of a) the potentially-emetic Pica Response ED50 dose from Assay 2 to b) the rat anti-inflammatory ED50 dose (e.g. measured by rat neutrophilia-inhibition in eg In Vivo Assay 1), with larger TI ratios possibly indicating lower emesis at many anti-inflammatory doses. […]
At the end of 72 hours the rats are placed in clean cages and the food cups weighed. […] The food and clay cups and cage debris are weighed the following day and the total clay and food consumed that night by each individual animal is calculated.
A dose response is calculated by first converting the data into quantal response, where animals are either positive or negative for the pica response. A rat is “pica positive” if it consumes greater than or equal to 0.3 grams of clay […] using logistic regression performed by the Statistica software statistical package. A Pica Response ED50 value in mg per kg of body weight can then be calculated.

CCn1ncc2c(NC3CCOCC3)c(C(=O)Nc3ccc(F)cc3)cnc21 [Example 22, 1-Ethyl-N-(4-fluorophenyl)-4-(tetrahydro-2H-pyran-4-ylamino)-1H-pryazolo[3,4-b]pyridine-5-carboxamide] showed an ED50 [1] of 0.5 to 2 mg/kg and an ED50 (pica feeding response) of 4.8 to 40 mg/kg.

Compound CCNC(=O)c1cnc2c(cnn2CC)c1NC1CCOCC1 [Example 83, 1-Ethyl-N-ethyl-4-(tetrahydro-2H-pyran-4-ylamino)-1H-pyrazolo[3,4-b]pyridine-5-carboxamide] has an ED50 [1] of 0.5 to 2 mg/kg and an ED50 (pica feeding response) of 4.8 to 40 mg/kg.

In the case of CCn1ncc2c(NC3CCOCC3)c(C(=O)NCc3ccc(C(F)(F)F)cc3)cnc21 [Example 155, 1-Ethyl-4-(tetrahydro-2H-pyran-4-ylamino)-N-[4-(trifluoromethyl)benzyl]-1H-pyrazolo[3,4-b]pyridine-5-carboxamide], the ED50 [1] was 0.5 to 2 mg/kg and the ED50 (pica feeding response) was 4.8 to 40 mg/kg.
